This is an account of results in PubChem BioAssay AID1963449 (Molecular Pharmacology Branch, DTP, NCI, 2024).

The subject of this experiment is 596521-263-R-J1-PDC complex spheroid growth. Kind of experiment: Anticancer human tumor 596521-263-R-J1-PDC patient-derived soft tissue sarcoma cell line growth inhibition [Asc]. The note with it: for viability, T/C: stronger effect = lower value. The procedure:
Multicellular complex tumor spheroid response to apoptosis pathway targeting inhibitors Alrizomadlin, Pelcitoclax, and Dasminapant in combination with a variety of drugs and investigational agents in selected tumor cell lines
The MDM2 inhibitor alrizomadlin, the Bcl-2/Bcl-xL inhibitor pelcitoclax, and the IAPs inhibitor dasminapant were evaluated both individually and in combination with standard of care and investigational anticancer small molecules within a complex spheroid model of solid tumors. . Complex spheroids include a stromal component modeled by human endothelial cells (HUVEC) and fibroblasts modeled by human mesenchymal stem cells (MSCs). The concentration ranges selected for each drug and investigational agent were based upon clinically achievable concentrations if the clinical Cmax of the agent was known.
Compounds. The drugs and investigational agents: alrizomadlin (APG-115; NSC831270), pelcitoclax (APG-1252; NSC835773), dasminapant (APG-1387;NSC834197), TAK-243 (NSC785004), copanlisib (NSC809693), olaparib (NSC753686), talazoparib (NSC767125), cobimetinib (NSC 768068), eltanexor (KPT-8602, NSC 794443), abemaciclib (NSC 768073), sotorasib (NSC818433), adagrasib (NSC 831453), MRTX-1133 (NSC 836407), Iadademestat (ORY1001, NSC 806812), and RMC-4630 (NSC839698), were obtained from the NCI Developmental Therapeutics Program Chemical Repository. The FDA-approved anticancer drug set is available from the Developmental Therapeutics Program at https://dtp.cancer.gov/organization/dscb/obtaining/available plates.htm. […] The stock solutions were prepared in dimethyl sulfoxide (DMSO, Sigma-Aldrich, St. Louis, MO, cat. D2650) at 800-fold the tested concentration and stored at -70 degrees C prior to their use. All drugs and investigational agents were tested over a range starting from a high concentration at or near the clinical Cmax and decreasing in half-log increments. If the clinical Cmax for an agent had not been determined, the highest concentration tested was 10 microM.
The patient-derived cancer (PDC) cell lines include five colon adenocarcinomas: 186277-243-T-J2-PDC, 616215-338-R-J1-PDC, 439559-082-T-J2-PDC, 463943-066-T-J2-PDC, and 519858-162-T-J1-PDC; three pancreatic carcinomas: 323965-272-R-J2-PDC, 521955-158-R6-J3-PDC, and 521955-158-R2-J5-PDC; two uterine sarcomas: 327498-152-R-J2-PDC and 993429-296-R-J1-PDC; two rhabdomyosarcomas: 755483-174-R-J1-PDC and 772245-204-R-J1-PDC; two soft tissue sarcomas: 126254-015-R-J1-PDC and 494315-158-R-J1-PDC; two malignant fibrous histiocytomas: 317291-083-R-J1-PDC and 596521-263-R-J1-PDC; two breast carcinomas: 171881-019-R-J1-PDC and 885512-296-R-J2-PDC; and one ovarian carcinoma: 6556581-035-R-J-PDC were obtained from the NCI PDMR, (https://pdmr.cancer.gov). The established cell lines HSSY-2 synovial sarcoma (RRID:CVCL 8719), SYO-1 synovial sarcoma (RRID:CVCL_7146), MPNST malignant peripheral neural sheath tumor were obtained from the Sloan Kettering Institute. The following established cell lines were purchased from the American Type Culture Collection (ATCC, Manassas, VA), Sor the received from the NCI repository:, PANC-1 pancreatic carcinoma (CRL-1469, RRID:CVCL_0480), OVCAR-5 ovarian carcinoma (RRID:CVCL_1628), OVCAR-8 ovarian carcinoma (RRID:CVCL_1629), , MCF-7 breast carcinoma (CRL-12584, RRID:CVCL_0031), MDA-MB-231 breast carcinoma (CRL-12532, RRID:CVCL_0062), NCI-H1876 small cell lung carcinoma (CRL-5902, RRID:CVCL_1503), NCI-H510A small cell lung carcinoma (HTB-184, RRID:CVCL_1565), NCI-H1417 (CRL-5869, RRID:CVCL_1469), and NCI-H196 small cell lung carcinoma (CRL-5823, RRID:CVCL_1509). Dr. Peter Houghton (Greehey Children's Cancer Research Institute, University of Texas Health Science Center, San Antonio, TX) provided Rh-18 rhabdomyosarcoma (RRID:CVCL_1659). Pooled donor human umbilical vein endothelial cells (HUVEC, Lonza, cat. CC-2519) and human mesenchymal stem cells (hMSC, Lonza, cat. PT-2501) were purchased from Lonza (Walkersville, MD).
Cell Culture. […]

Each structure is given as a SMILES string. Several values for one entry are separate records, joined by “and”; a condition that tells them apart may be missing. Equal entries are not always repeated.

What is called IC50 is the midpoint of a concentration-inhibition curve. Usually viability, T/C stands for the result in the treated group divided by that in the control group, in per cent.
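Also: spheroids exposed to compounds for 7 days.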

For the compound `CCN1CCN(Cc2ccc(Nc3ncc(F)c(-c4cc(F)c5nc(C)n(C(C)C)c5c4)n3)nc2)CC1` + CNC(C)C(=O)NC1CN(S(=O)(=O)c2cccc(S(=O)(=O)N3CCC4CCC(C(=O)NC(c5ccccc5)c5ccccc5)N4C(=O)C(NC(=O)C(C)NC)C3)c2)CCC2CCC(C(=O)NC(c3ccccc3)c3ccccc3)N2C1=O, the IC50 is greater than 1000 nM (curve of first compound, second compound 0.00316 µM); greater than 1000 nM (curve of first compound, second compound 0.01 µM); greater than 1000 nM (curve of first compound, second compound 0.0316 µM); greater than 1000 nM (curve of first compound, second compound 0.1 µM); greater than 1000 nM (curve of first compound, second compound 0.316 µM); greater than 1000 nM (curve of first compound, second compound 1 µM). Also, the viability, T/C (second compound 0.00316 µM, first compound 0.00316 µM) is 90.8%; the viability, T/C (second compound 0.00316 µM, first compound 0.01 µM) is 81.4%; the viability, T/C (second compound 0.00316 µM, first compound 0.0316 µM) is 77%; the viability, T/C (second compound 0.00316 µM, first compound 0.1 µM) was 79.8%; the viability, T/C (second compound 0.00316 µM, first compound 0.316 µM) is 81.7%; the viability, T/C (second compound 0.00316 µM, first compound 1 µM) is 74.1%. Moreover, the viability, T/C (second compound 0.01 µM, first compound 0.00316 µM) is 98.6%; the viability, T/C (second compound 0.01 µM, first compound 0.01 µM) is 87.5%; the viability, T/C (second compound 0.01 µM, first compound 0.0316 µM) was 81.2%; the viability, T/C (second compound 0.01 µM, first compound 0.1 µM) was 84.6%; the viability, T/C (second compound 0.01 µM, first compound 0.316 µM) is 81.6%; the viability, T/C (second compound 0.01 µM, first compound 1 µM) is 91.3%. Moreover, the viability, T/C runs as follows: (second compound 0.0316 µM, first compound 0.00316 µM) 79.9%; (second compound 0.0316 µM, first compound 0.01 µM) 83.4%; (second compound 0.0316 µM, first compound 0.0316 µM) 79%; (second compound 0.0316 µM, first compound 0.1 µM) 76.8%; (second compound 0.0316 µM, first compound 0.316 µM) 93.5%; (second compound 0.0316 µM, first compound 1 µM) 76%. The viability, T/C is 73% (second compound 0.1 µM, first compound 0.00316 µM); 78.8% (second compound 0.1 µM, first compound 0.01 µM); 76% (second compound 0.1 µM, first compound 0.0316 µM); 86% (second compound 0.1 µM, first compound 0.1 µM); 79.7% (second compound 0.1 µM, first compound 0.316 µM); 84.8% (second compound 0.1 µM, first compound 1 µM). Further, the viability, T/C by setting is: (second compound 0.316 µM, first compound 0.00316 µM) 75.4%; (second compound 0.316 µM, first compound 0.01 µM) 78.1%; (second compound 0.316 µM, first compound 0.0316 µM) 74.8%; (second compound 0.316 µM, first compound 0.1 µM) 77.3%; (second compound 0.316 µM, first compound 0.316 µM) 84.7%; (second compound 0.316 µM, first compound 1 µM) 78.3%. The viability, T/C reads like this: (second compound 1 µM, first compound 0.00316 µM) 70.4%; (second compound 1 µM, first compound 0.01 µM) 76%; (second compound 1 µM, first compound 0.0316 µM) 72.3%; (second compound 1 µM, first compound 0.1 µM) 70.7%; (second compound 1 µM, first compound 0.316 µM) 72.7%; (second compound 1 µM, first compound 1 µM) 69.4%.

`C#Cc1c(F)ccc2cc(O)cc(-c3ncc4c(N5CC6CCC(C5)N6)nc(OCC56CCCN5CC(F)C6)nc4c3F)c12` (stereo not drawn): the viability, T/C reads like this: (compound 0.0316 µM) 102% and 104% (2×); (compound 0.1 µM) 87% and 90.2% and 98.9%; (compound 0.316 µM) 99.2% and 109% and 98.2%; (compound 1 µM) 102% (2×) and 112%; (compound 3.16 µM) 100% and 94.5% and 103%; (compound 10 µM) 93.4% and 85.1% and 88.1%. For the same compound, for the setting “curve of compound”, the IC50 is greater than 10000 nM.

As to `CNC(C)C(=O)NC1CN(S(=O)(=O)c2cccc(S(=O)(=O)N3CCC4CCC(C(=O)NC(c5ccccc5)c5ccccc5)N4C(=O)C(NC(=O)C(C)NC)C3)c2)CCC2CCC(C(=O)NC(c3ccccc3)c3ccccc3)N2C1=O` (stereo not drawn), the viability, T/C runs as follows: (compound 0.0316 µM) 89.6% [middle of 6 runs]; (compound 0.1 µM) 87.5% [middle of 6 runs]; (compound 1 µM) 77.4% [middle of 6 runs]. The IC50 (curve of compound) is greater than 1000 nM.
